Data taken from patent publication US5215738A, “Benzamide and nicotinamide radiosensitizers” (SRI International, priority 1990, dated 1993).
Counter-ions that a name gives are not always drawn.

Key:
Water solubility = format: physicochemical
[1] = Cytotoxicity test (% cell survival, hypoxic cells); format: cell-based, Chinese hamster; conditions: hamster, cho ha-1 cells, 10 mM, 22° C., hypoxia
Method: (§1) Cytotoxicity tests were also carried out on some of the compounds. The test procedure was as follows: Log-phase Chinese hamster ovary HA-1 cells were trypsinized (0.5% trypsin in Hank's buffered salt solution (HBSS)) and plated in 60 mm Permanox petri dishes in concentrations necessary to yield approximately 30 colonies after experimental treatment. The cells were allowed to attach overnight. Then the medium was removed from each dish and replaced with 2 ml of medium containing varying concentrations of the test compound. The petri dishes were then placed in nylon chamber fitted with gassing ports and, to achieve hypoxia, were gassed at room temperature with humidified N2 containing 5% CO2 ' for 1 hr at a rate of 1 l/min. The cells are then exposed to 10 mM of the test compound for 1 hr at 22° C. The % cell survival is read after such treatment.

EMT6 tumors = assay: In vivo assay for radiosensitization activity (EMT6 tumors in BALB/c mice); set-up: species or system female BALB/c mice; key: 0: No radiosensitization; 1: Minimal radiosensitization (some radiosensitization relative to controls but lowest survival>3×lowest survival with MIS); 2: Moderate radiosensitization (not good as MIS, but lowest surviving fraction<3×lowest surviving fraction with MIS); 3: Good radiosensitization (equal to MIS); 4: Excellent radiosensitization (superior to MIS); conditions: score 0 to 4 compared with MIS, 5 mmol/kg or 2/3 of the LD50, 2,000 rad
Method: In Vivo Assay for Radiosensitization Activity
The compounds of the invention are tested in vivo for radiosensitization activity by the assay of Brown, J. M. Radiation Res (1975) 64:633-47, incorporated herein by reference. For this assay EMT6 tumors in female BALB/c mice weighing 20-25 g are used. These mice are bred under specific pathogen-free conditions and are 3-4 months old at the beginning of each experiment. The EMT6 tumor is grown intradermally in the flank from an inoculation of 2×10^5 tumor cells taken from the 2nd-8th in vitro passage of the tumor cells since removal from the previous in vivo tumor. Two tumors per mouse are implanted, and are used as subject tumors when they reach a volume of approximately […]. At this point the tumors contain approximately 20% hypoxic cells.
Test compounds are compared against MIS in this assay. The test compound is tested at a fixed injected dose of either 5 mmol/kg or 2/3 of the LD50 (whichever is lower), MIS is injected into controls at the same dose. Additional suitable controls of test compound-injected but nonirradiated and saline-injected and irradiated mice are also included. A fixed radiation dose of 2,000 rad is applied at variable intervals of 5 min to 2 hr between injection and irradiation. Typically, irradiation is applied at 5, 10, 15, 20, 30, 45, 60, 90, and 120 min following intraperitoneal administration of both drugs. By using these intervals, the results give an indication of both the optimum time to irradiate and of how the test compound sensitizes in relationship to MIS.
Irradiation of the EMT6 tumors is done by irradiating nonanesthetized tumor-bearing mice in a Plexiglas box. Irradiation conditions are 250 kVp X-rays, 15 mA, FSC 33 cm, added filtration of 0.35 mm Cu, half value layer 1.3 mm Cu, and a dose rate of 317 rad/min.
Radiosensitization activity is judged by survival rate of dissected and cultured tumor cells as follows: The tumor-bearing mice are killed immediately after irradiation, and tumors dissected from the skin, cut into several pieces, and made into a fine brei by high-speed chopping with a razor blade attached to a jigsaw. The brei is added to 30 ml of Hank's buffered salt solution (HBSS) containing 0.02% DNase, 0.05% promase, and 0.02% collagenase. The suspension is stirred for 30 min at 37° C., filtered, and centrifuged at 1,600 rmp for 10 min at 4° C. The cell pellet is resuspended in complete Waymouth's medium plus 12-1/2% horse serum plus 2-12% fetal calf serum (FCS) and an aliquot mixed with trypan blue and counted with the use of a hemacytometer. […] After incubation for 13 days, the colonies are fixed and stained, and those containing 50 cells or more are counted. […]
The test compound is scored on the scale of 0 to 4 based on how it compares with MIS. […]

Chinese hamster cells = conditions: added during or after irradiation; non-hypoxic cells; cited from earlier work
[2] = system: normal cells (tail growth) and tumor cells; conditions: nicotinamide administered prior to irradiating; cited from earlier work
[3] = system: Chinese hamster ovary HA-1 cells; assay: Cytotoxicity test (% cell survival, hypoxic cells); format: cell-based; conditions: 10 mM, 1 hr, 22° C., hypoxia, CHO HA-1 cells; 60 min, 10000 µM
Method: as §1

Row | SMILES | viability at 1 h, 10000 µM [1] [%] | Radiosensitization (EMT6 tumors) | other results
1 | NC(=O)c1cncc(O)c1 [5-hydroxynicotinamide sodium salt, 5-hydroxynicotinamide] | – | – | water solubility (Water solubility): very water soluble
2 | NC(=O)c1cccc(OCCO)c1 [3-(2-hydroxyethoxy)benzamide] | 89 | 3 | –
3 | NC(=O)c1cccc(N)c1 [m-aminobenzamide] | – | – | sensitization to lethal effects of radiation (Chinese hamster cells): found to sensitize these cells to the lethal effects of radiation
4 | COCCNc1cncc(C(N)=O)c1 [3-(2-methoxyethylamino)nicotinamide, 3-(2-methoxyethylamino) nicotinamide] | – | 3 | –
5 | NC(=O)c1cccnc1 [nicotinamide] | – | 3 | enhancement ratio, normal vs tumor cells [2]: greater for normal cells in vivo than that exhibited for tumor cells
6 | NC(=O)c1cccc(O)c1 [3-hydroxybenzamide] | 90 | 3 | Cytotoxicity % Cell Survival [3]: 77%
